Results reported in ChEMBL document CHEMBL3885881, “DrugMatrix”.

Species: Rattus norvegicus
Assay: DrugMatrix - Regimen: Daily Repeat
Type: toxicity, organism-based, Sprague-Dawley
Set-up: regimen Daily Repeat, gender Male, age 6-8 weeks
Conditions: in vivo, po, […], route oral GAVAGE, dose 0.014 mg/Kg, dose level Low, vehicle .5 % CMC; for ABSOLUTE BASOPHIL / ABSOLUTE EOSINOPHIL / ABSOLUTE LYMPHOCYTE / ABSOLUTE MONOCYTE / ABSOLUTE SEGMENTED NEUTROPHIL / BASOPHIL / EOSINOPHIL / ERYTHROCYTE COUNT / HEMATOCRIT / HEMOGLOBIN / LEUKOCYTE COUNT / LYMPHOCYTE / MEAN CORPUSCULAR HEMOGLOBIN / MEAN CORPUSCULAR HEMOGLOBIN CONCENTRATION / MEAN CORPUSCULAR VOLUME / MONOCYTE / NEUTROPHIL / NUCLEATED RED BLOOD CELLS / PLATELET COUNT: tissue Blood; for ALANINE AMINOTRANSFERASE / ALBUMIN / ALKALINE PHOSPHATASE / ASPARTATE AMINOTRANSFERASE / BLOOD UREA NITROGEN / CARBON DIOXIDE / CHLORIDE / CHOLESTEROL / CREATINE PHOSPHOKINASE / CREATININE / GLUCOSE / LIPASE / PHOSPHORUS / POTASSIUM / SODIUM / TOTAL BILIRUBIN / TOTAL PROTEIN / URIC ACID: tissue Plasma

COc1cc2c(c3oc(=O)c4c(c13)CCC4=O)[C@@H]1C=CO[C@@H]1O2 [AFLATOXIN]
ABSOLUTE BASOPHIL (72 h, time 3 day): 0 CELLS/uL
ABSOLUTE EOSINOPHIL (72 h, time 3 day): 94 CELLS/uL
ABSOLUTE LYMPHOCYTE (72 h, time 3 day): 13843.33 CELLS/uL
ABSOLUTE MONOCYTE (72 h, time 3 day): 261.67 CELLS/uL
ABSOLUTE SEGMENTED NEUTROPHIL (72 h, time 3 day): 1234.33 CELLS/uL
BASOPHIL (72 h, time 3 day): 0%
EOSINOPHIL (72 h, time 3 day): 0.67%
ERYTHROCYTE COUNT (72 h, time 3 day): 5.21 x10E6/uL
HEMATOCRIT (72 h, time 3 day): 33%
HEMOGLOBIN (72 h, time 3 day): 12.47 G/DL
LEUKOCYTE COUNT (72 h, time 3 day): 15.43 x10E3/uL
LYMPHOCYTE (72 h, time 3 day): 89.67%
MEAN CORPUSCULAR HEMOGLOBIN (72 h, time 3 day): 23.93 pg
MEAN CORPUSCULAR HEMOGLOBIN CONCENTRATION (72 h, time 3 day): 37.8 G/DL
MEAN CORPUSCULAR VOLUME (72 h, time 3 day): 63.23 fL
MONOCYTE (72 h, time 3 day): 1.67%
NEUTROPHIL (72 h, time 3 day): 8%
NUCLEATED RED BLOOD CELLS (72 h, time 3 day): 0 /100WBC
PLATELET COUNT (72 h, time 3 day): 1257 x10E3/uL
ALANINE AMINOTRANSFERASE (72 h, time 3 day): 47.67 u/L
ALBUMIN (72 h, time 3 day): 4.1 G/DL
ALKALINE PHOSPHATASE (72 h, time 3 day): 302.67 u/L
ASPARTATE AMINOTRANSFERASE (72 h, time 3 day): 99 u/L
BLOOD UREA NITROGEN (72 h, time 3 day): 16.33 mg/dL
CARBON DIOXIDE (72 h, time 3 day): 25.33 mmol/L
CHLORIDE (72 h, time 3 day): 103.33 MEQ/L
CHOLESTEROL (72 h, time 3 day): 64.67 mg/dL
CREATINE PHOSPHOKINASE (72 h, time 3 day): 408 u/L
CREATININE (72 h, time 3 day): 0.21 mg/dL
GLUCOSE (72 h, time 3 day): 142.33 mg/dL
LIPASE (72 h, time 3 day): 9 u/L
PHOSPHORUS (72 h, time 3 day): 12.17 mg/dL
POTASSIUM (72 h, time 3 day): 6.42 MEQ/L
SODIUM (72 h, time 3 day): 143.57 MEQ/L
TOTAL BILIRUBIN (72 h, time 3 day): 0.2 mg/dL
TOTAL PROTEIN (72 h, time 3 day): 5.47 G/DL
URIC ACID (72 h, time 3 day): 1.47 mg/dL
ABSOLUTE BASOPHIL (120 h, time 5 day): 0 CELLS/uL
ABSOLUTE EOSINOPHIL (120 h, time 5 day): 37.67 CELLS/uL
ABSOLUTE LYMPHOCYTE (120 h, time 5 day): 14048 CELLS/uL
ABSOLUTE MONOCYTE (120 h, time 5 day): 191.67 CELLS/uL
ABSOLUTE SEGMENTED NEUTROPHIL (120 h, time 5 day): 1122.67 CELLS/uL
BASOPHIL (120 h, time 5 day): 0%
EOSINOPHIL (120 h, time 5 day): 0.33%
ERYTHROCYTE COUNT (120 h, time 5 day): 5.76 x10E6/uL
HEMATOCRIT (120 h, time 5 day): 35.83%
HEMOGLOBIN (120 h, time 5 day): 13.37 G/DL
LEUKOCYTE COUNT (120 h, time 5 day): 15.4 x10E3/uL
LYMPHOCYTE (120 h, time 5 day): 91%
MEAN CORPUSCULAR HEMOGLOBIN (120 h, time 5 day): 23.2 pg
MEAN CORPUSCULAR HEMOGLOBIN CONCENTRATION (120 h, time 5 day): 37.3 G/DL
MEAN CORPUSCULAR VOLUME (120 h, time 5 day): 62.2 fL
MONOCYTE (120 h, time 5 day): 1.33%
NEUTROPHIL (120 h, time 5 day): 7.33%
NUCLEATED RED BLOOD CELLS (120 h, time 5 day): 1.33 /100WBC
PLATELET COUNT (120 h, time 5 day): 1353 x10E3/uL
ALANINE AMINOTRANSFERASE (120 h, time 5 day): 48.33 u/L
ALBUMIN (120 h, time 5 day): 4.3 G/DL
ALKALINE PHOSPHATASE (120 h, time 5 day): 352.33 u/L
ASPARTATE AMINOTRANSFERASE (120 h, time 5 day): 90.33 u/L
BLOOD UREA NITROGEN (120 h, time 5 day): 19.67 mg/dL
CARBON DIOXIDE (120 h, time 5 day): 26.33 mmol/L
CHLORIDE (120 h, time 5 day): 105.67 MEQ/L
CHOLESTEROL (120 h, time 5 day): 63.33 mg/dL
CREATINE PHOSPHOKINASE (120 h, time 5 day): 486.67 u/L
CREATININE (120 h, time 5 day): 0.21 mg/dL
GLUCOSE (120 h, time 5 day): 164.67 mg/dL
LIPASE (120 h, time 5 day): 8.33 u/L
PHOSPHORUS (120 h, time 5 day): 12.6 mg/dL
POTASSIUM (120 h, time 5 day): 6.34 MEQ/L
SODIUM (120 h, time 5 day): 146.9 MEQ/L
TOTAL BILIRUBIN (120 h, time 5 day): 0.2 mg/dL
TOTAL PROTEIN (120 h, time 5 day): 6.03 G/DL
URIC ACID (120 h, time 5 day): 1.93 mg/dL
